# Measurements reported in ChEMBL document CHEMBL3045542, “A quantitative structure-activity relationship study of herbicidal analogues of alpha-hydroxy-substituted 3-benzylidenepyrrolidene-2,4-diones” (2006).
# Tests used:
# Format in all cases: functional
# Echinochloa crus-galli [1] = assay: Herbicidal activity against Echinochloa crus-galli (barnyard grass) assessed as inhibition of plant growth at 10 ug/mL by cup test
# Digitaria sanguinalis [2] = assay: Herbicidal activity against Digitaria sanguinalis (hairy crabgrass) assessed as inhibition of plant growth at 750 g/ha applied as pre-emergence treatment; details: for inhibition at 750 g/ha: Digitaria sanguinalis, pre-emergence
# Echinochloa crus-galli [3] = assay: Herbicidal activity against Echinochloa crus-galli (barnyard grass) assessed as inhibition of plant growth at 375 g/ha applied as pre-emergence treatment; details: for inhibition at 375 g/ha: Echinochloa crus-galli, pre-emergence
# Digitaria sanguinalis [4] = assay: Herbicidal activity against Digitaria sanguinalis (hairy crabgrass) assessed as inhibition of plant growth at 93.75 g/ha applied as pre-emergence treatment; details: for inhibition at 93.75 g/ha: Digitaria sanguinalis, pre-emergence
# Echinochloa crus-galli [5] = assay: Herbicidal activity against Echinochloa crus-galli (barnyard grass) assessed as inhibition of plant growth at 750 g/ha applied as pre-emergence treatment; details: for inhibition at 750 g/ha: Echinochloa crus-galli, pre-emergence
# Echinochloa crus-galli [6] = assay: Herbicidal activity against Echinochloa crus-galli (barnyard grass) assessed as inhibition of plant growth at 93.75 g/ha applied as pre-emergence treatment; details: for inhibition at 93.75 g/ha: Echinochloa crus-galli, pre-emergence
# Echinochloa crus-galli [7] = assay: Herbicidal activity against Echinochloa crus-galli (barnyard grass) assessed as inhibition of plant growth at 187.5 g/ha applied as pre-emergence treatment; details: for inhibition at 187.5 g/ha: Echinochloa crus-galli, pre-emergence
# Digitaria sanguinalis [8] = assay: Herbicidal activity against Digitaria sanguinalis (hairy crabgrass) assessed as inhibition of plant growth at 187.5 g/ha applied as pre-emergence treatment; details: for inhibition at 187.5 g/ha: Digitaria sanguinalis, pre-emergence
# Digitaria sanguinalis [9] = assay: Herbicidal activity against Digitaria sanguinalis (hairy crabgrass) assessed as inhibition of plant growth at 375 g/ha applied as pre-emergence treatment; details: for inhibition at 375 g/ha: Digitaria sanguinalis, pre-emergence
# [10] = tested as the Zn salt or complex
compound,measurement,setting,value
COc1ccc(C/C(O)=C2/C(=O)CN(C(C)C)C2=O)cc1,inhibition at 10 µg/mL,Echinochloa crus-galli [1],5%
CCOc1ccc(/C(O)=C2\C(=O)CN(C(C)C)C2=O)c(OC)c1,inhibition at 10 µg/mL,Echinochloa crus-galli [1],69%
CC(C)N1CC(=O)/C(=C(/O)c2cccc(Oc3ccccc3)c2)C1=O,inhibition at 10 µg/mL,Echinochloa crus-galli [1],57%
CC(C)Oc1ccc(/C(O)=C2\C(=O)CN(C(C)C)C2=O)cc1,inhibition at 10 µg/mL,Echinochloa crus-galli [1],79%
CCCCCc1ccc(/C(O)=C2\C(=O)CN(C)C2=O)cc1,inhibition at 10 µg/mL,Echinochloa crus-galli [1],16%
CCOc1ccc(/C(O)=C2\C(=O)CN(C(C)CC)C2=O)c(OC)c1 (centres undefined),inhibition at 10 µg/mL,Echinochloa crus-galli [1],68%
Cc1ccc(/C(O)=C2\C(=O)CN(C(C)C)C2=O)cc1,inhibition at 10 µg/mL,Echinochloa crus-galli [1],77%
CS(=O)(=O)c1ccc(C(=O)C2C(=O)CCCC2=O)c(Cl)c1 [SULCOTRIONE],inhibition at 750 g/ha,Digitaria sanguinalis [2],100%
same,inhibition at 375 g/ha,Echinochloa crus-galli [3],100%
same,inhibition at 93.75 g/ha,Digitaria sanguinalis [4],100%
same,inhibition at 750 g/ha,Echinochloa crus-galli [5],100%
same,inhibition at 93.75 g/ha,Echinochloa crus-galli [6],70%
same,inhibition at 187.5 g/ha,Echinochloa crus-galli [7],93%
same,inhibition at 187.5 g/ha,Digitaria sanguinalis [8],100%
same,inhibition at 375 g/ha,Digitaria sanguinalis [9],100%
Cc1ccc(/C(O)=C2\C(=O)CN(Cc3ccccc3)C2=O)cc1,inhibition at 10 µg/mL,Echinochloa crus-galli [1],8%
COc1ccc(/C([O-])=C2\C(=O)CN(C(C)C)C2=O)c(OC)c1.[Na+],inhibition (INH),Digitaria sanguinalis [2],100%
same,inhibition (INH),Echinochloa crus-galli [3],100%
same,inhibition (INH),Digitaria sanguinalis [4],10%
same,inhibition (INH),Echinochloa crus-galli [5],100%
same,inhibition (INH),Echinochloa crus-galli [6],73%
same,inhibition (INH),Echinochloa crus-galli [7],100%
same,inhibition (INH),Digitaria sanguinalis [8],90%
same,inhibition (INH),Digitaria sanguinalis [9],100%
COc1ccccc1/C(O)=C1\C(=O)CN(Cc2ccccc2)C1=O,inhibition at 10 µg/mL,Echinochloa crus-galli [1],14%
CCC(C)N1CC(=O)/C(=C(/O)c2cc(C)cc(C)c2)C1=O (centres undefined),inhibition at 10 µg/mL,Echinochloa crus-galli [1],9%
CCOc1ccc(/C(O)=C2\C(=O)CN(C(C)CC)C2=O)cc1 (centres undefined),inhibition at 750 g/ha,Digitaria sanguinalis [2],96%
same,inhibition at 375 g/ha,Echinochloa crus-galli [3],82%
same,inhibition at 93.75 g/ha,Digitaria sanguinalis [4],18%
same,inhibition at 750 g/ha,Echinochloa crus-galli [5],93%
same,inhibition at 93.75 g/ha,Echinochloa crus-galli [6],7%
same,inhibition at 187.5 g/ha,Echinochloa crus-galli [7],28%
same,inhibition at 10 µg/mL,Echinochloa crus-galli [1],78%
same,inhibition at 187.5 g/ha,Digitaria sanguinalis [8],41%
same,inhibition at 375 g/ha,Digitaria sanguinalis [9],59%
COc1ccc(C(=O)C2=C(O)N(C(C)C)CCC2=O)cc1,inhibition at 10 µg/mL,Echinochloa crus-galli [1],0%
Cc1ccccc1/C(O)=C1\C(=O)CN(C(C)C)C1=O,inhibition at 10 µg/mL,Echinochloa crus-galli [1],77%
CCC(C)N1CC(=O)/C(=C(/O)c2ccc(OC)cc2OC)C1=O (centres undefined),inhibition at 750 g/ha,Digitaria sanguinalis [2],80%
same,inhibition at 375 g/ha,Echinochloa crus-galli [3],76%
same,inhibition at 93.75 g/ha,Digitaria sanguinalis [4],0%
same,inhibition at 750 g/ha,Echinochloa crus-galli [5],100%
same,inhibition at 93.75 g/ha,Echinochloa crus-galli [6],13%
same,inhibition at 187.5 g/ha,Echinochloa crus-galli [7],14%
same,inhibition at 10 µg/mL,Echinochloa crus-galli [1],79%
same,inhibition at 187.5 g/ha,Digitaria sanguinalis [8],4%
same,inhibition at 375 g/ha,Digitaria sanguinalis [9],63%
CCOc1ccc(/C([O-])=C2\C(=O)CN(C(C)C)C2=O)cc1.CCOc1ccc(/C([O-])=C2\C(=O)CN(C(C)C)C2=O)cc1.[Zn+2],inhibition at 750 g/ha,Digitaria sanguinalis [2]; [10],100%
same,inhibition at 375 g/ha,Echinochloa crus-galli [3]; [10],100%
same,inhibition at 93.75 g/ha,Digitaria sanguinalis [4]; [10],8%
same,inhibition at 750 g/ha,Echinochloa crus-galli [5]; [10],100%
same,inhibition (INH),Echinochloa crus-galli [6],57%
same,inhibition at 187.5 g/ha,Echinochloa crus-galli [7]; [10],96%
same,inhibition at 187.5 g/ha,Digitaria sanguinalis [8]; [10],64%
same,inhibition (INH),Digitaria sanguinalis [9],100%
COc1ccc(/C(O)=C2\C(=O)CN(C3CC3)C2=O)c(OC)c1,inhibition at 10 µg/mL,Echinochloa crus-galli [1],78%
CC(C)Oc1cccc(/C(O)=C2\C(=O)CN(C(C)C)C2=O)c1,inhibition at 10 µg/mL,Echinochloa crus-galli [1],9%
COc1ccc(/C(O)=C2\C(=O)C(C)N(C(C)C)C2=O)cc1 (centres undefined),inhibition at 10 µg/mL,Echinochloa crus-galli [1],4%
Cc1ccccc1/C(O)=C1\C(=O)CN(C(C)(C)C)C1=O,inhibition at 10 µg/mL,Echinochloa crus-galli [1],64%
CC(C)c1ccc(/C(O)=C2\C(=O)CN(C(C)(C)C)C2=O)cc1,inhibition at 10 µg/mL,Echinochloa crus-galli [1],10%
COc1ccc(/C(O)=C2\C(=O)CN(C3CC3)C2=O)cc1,inhibition at 10 µg/mL,Echinochloa crus-galli [1],62%
COc1ccc(/C(O)=C2\C(=O)CN(C(C)C)C2=O)c(OC)c1,inhibition (INH),Digitaria sanguinalis [2],95%
same,inhibition (INH),Echinochloa crus-galli [3],94%
same,inhibition (INH),Digitaria sanguinalis [4],20%
same,inhibition (INH),Echinochloa crus-galli [5],99%
same,inhibition (INH),Echinochloa crus-galli [6],10%
same,inhibition (INH),Echinochloa crus-galli [7],56%
same,inhibition at 10 µg/mL,Echinochloa crus-galli [1],78%
same,inhibition (INH),Digitaria sanguinalis [8],84%
same,inhibition (INH),Digitaria sanguinalis [9],95%
CC(C)N1CC(=O)/C(=C(/O)c2ccc(Cl)cc2)C1=O,inhibition at 10 µg/mL,Echinochloa crus-galli [1],25%
Cc1ccccc1/C(O)=C1\C(=O)CN(Cc2ccccc2)C1=O,inhibition at 10 µg/mL,Echinochloa crus-galli [1],15%
O=C1CN(C2CC2)C(=O)/C1=C(\O)c1cccc(Oc2ccccc2)c1,inhibition at 10 µg/mL,Echinochloa crus-galli [1],58%
CCCc1ccc(/C(O)=C2\C(=O)CN(C(C)C)C2=O)cc1,inhibition at 10 µg/mL,Echinochloa crus-galli [1],27%
CCOc1ccc(/C(O)=C2\C(=O)CN(C(C)C)C2=O)cc1,inhibition (INH),Digitaria sanguinalis [2],93%
same,inhibition (INH),Echinochloa crus-galli [3],100%
same,inhibition (INH),Digitaria sanguinalis [4],5%
same,inhibition (INH),Echinochloa crus-galli [5],100%
same,inhibition (INH),Echinochloa crus-galli [6],36%
same,inhibition (INH),Echinochloa crus-galli [7],95%
same,inhibition at 10 µg/mL,Echinochloa crus-galli [1],79%
same,inhibition (INH),Digitaria sanguinalis [8],66%
same,inhibition (INH),Digitaria sanguinalis [9],77%
COc1ccc(/C(O)=C2\C(=O)C(C)N(C(C)C)C2=O)c(OC)c1 (centres undefined),inhibition at 10 µg/mL,Echinochloa crus-galli [1],25%
CC(C)N1CC(=O)/C(=C(/O)c2ccc(OCc3ccccc3)cc2)C1=O,inhibition at 10 µg/mL,Echinochloa crus-galli [1],39%
COc1ccc(/C(O)=C2\C(=O)CN(Cc3ccccc3)C2=O)cc1,inhibition at 10 µg/mL,Echinochloa crus-galli [1],14%
C=CCOc1ccc(/C(O)=C2\C(=O)C(C)N(C(C)C)C2=O)c(OC)c1 (centres undefined),inhibition at 10 µg/mL,Echinochloa crus-galli [1],44%
CCCOc1ccc(/C(O)=C2\C(=O)CN(C(C)C)C2=O)cc1,inhibition at 10 µg/mL,Echinochloa crus-galli [1],73%
CCOc1ccc(C(=O)C2=C(O)N(C(C)C)CCC2=O)cc1,inhibition at 10 µg/mL,Echinochloa crus-galli [1],15%
CC(C)N1CC(=O)/C(=C(/O)c2ccc(C(C)(C)C)cc2)C1=O,inhibition at 10 µg/mL,Echinochloa crus-galli [1],28%
